We go through five compounds from patent publication US8765727B2, “Macrocyclic compounds and their use as kinase inhibitors” (Incyte Corporation, priority 2009, dated 2014).

Structures can show the parent of a compound that is named as a salt. Where two headings read alike, the source gives them in different places. Some results are limits rather than exact numbers.

Broadly, the IC50 is the concentration that inhibits the measured activity by half.

Type in all cases: biochemical
Experiment [1] concerns the target human JAK2 (a.a. 828-1132) catalytic domain (Homo sapiens (Human), UniProt O60674). Nature of the experiment: In vitro JAK kinase assay (HTRF), JAK2. The method, then: One or more compounds herein were tested for inhibitory activity of JAK targets according to the following in vitro assay described in Park et al., Analytical Biochemistry 1999, 269, 94-104. The catalytic domains of human JAK1 (a.a. 837-1142), JAK2 (a.a. 828-1132) and JAK3 (a.a. 781-1124) with an N-terminal His tag were expressed using baculovirus in insect cells and purified. The catalytic activity of JAK1, JAK2 or JAK3 was assayed by measuring the phosphorylation of a biotinylated peptide. The phosphorylated peptide was detected by homogenous time resolved fluorescence (HTRF). […] Binding to the Europium labeled antibody took place for 40 minutes and HTRF signal was measured on a Fusion plate reader (Perkin Elmer, Boston, Mass.).
In general terms: Time-resolved FRET reads energy transfer from a long-lived donor to a nearby acceptor.

The target of experiment [2] is human JAK3 (a.a. 781-1124) catalytic domain (Homo sapiens (Human), UniProt P52333). Nature of the experiment: In vitro JAK kinase assay (HTRF), JAK3. Particulars: 3 μM ATP, 500 nM peptide, room temperature 1 hr. The protocol: (§1) One or more compounds herein were tested for inhibitory activity of JAK targets according to the following in vitro assay described in Park et al., Analytical Biochemistry 1999, 269, 94-104. The catalytic domains of human JAK1 (a.a. 837-1142), JAK2 (a.a. 828-1132) and JAK3 (a.a. 781-1124) with an N-terminal His tag were expressed using baculovirus in insect cells and purified. The catalytic activity of JAK1, JAK2 or JAK3 was assayed by measuring the phosphorylation of a biotinylated peptide. The phosphorylated peptide was detected by homogenous time resolved fluorescence (HTRF). […] The ATP concentration in the reactions was 90 μM for JAK1, 30 μM for JAK2 and 3 μM for JAK3. Reactions were carried out at room temperature for 1 hr and then stopped with 20 μL 45 mM EDTA, 300 nM SA-APC, 6 nM Eu-Py20 in assay buffer (Perkin Elmer, Boston, Mass.). Binding to the Europium labeled antibody took place for 40 minutes and HTRF signal was measured on a Fusion plate reader (Perkin Elmer, Boston, Mass.).
Chain of human JAK3 (a.a. 781-1124) catalytic domain (P52333 781-1124): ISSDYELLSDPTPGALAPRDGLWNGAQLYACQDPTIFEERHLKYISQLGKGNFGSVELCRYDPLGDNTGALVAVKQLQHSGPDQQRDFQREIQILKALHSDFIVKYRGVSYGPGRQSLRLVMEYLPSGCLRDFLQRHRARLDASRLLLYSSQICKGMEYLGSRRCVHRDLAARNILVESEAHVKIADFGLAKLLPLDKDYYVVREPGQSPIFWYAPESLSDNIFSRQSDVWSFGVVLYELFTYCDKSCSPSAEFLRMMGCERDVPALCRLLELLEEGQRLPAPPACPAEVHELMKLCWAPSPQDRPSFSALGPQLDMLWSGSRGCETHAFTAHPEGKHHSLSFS

Experiment [3] has as its target human JAK1 (a.a. 837-1142) catalytic domain (Homo sapiens, UniProt P23458). The experiment can be described thus: In vitro JAK kinase assay (HTRF), JAK1. The settings on record: 90 μM ATP, 500 nM peptide, room temperature 1 hr. The method, then: as §1
In experiment [4] the target is TYK2 (Homo sapiens (Human), UniProt P29597). The experiment can be described thus: TYK2 assay (as described by Thompson et al.). From the text:
The invention will be described in greater detail by way of specific examples. The following examples are offered for illustrative purposes, and are not intended to limit the invention in any manner. Those of skill in the art will readily recognize a variety of non-critical parameters which can be changed or modified to yield essentially the same results. In some instances where the compounds of the examples were isolated by preparative HPLC in the presence of trifluoroacetic acid (TFA) or other acid, the compound may have been obtained as the corresponding salt. […] Certain compounds described in Tables 1 and in the Example section were tested for inhibitory activity of JAK/ALK targets according to assays such as those described herein or those known in the art [e.g., ALK assays described in WO 04/079326; and TYK2 assays described by James E. Thompson et. al, “Photochemical preparation of a pyridone containing tetracycle: A JAK protein kinase inhibitor,” Bioorganic & Medicinal Chemistry Letters, Volume 12, Issue 8, 22 Apr. 2002, Pages 1219-1223]. […] Some exemplary data of the compounds of the invention are shown in Table 1 in the experimental section.

The target of experiment [5] is Recombinant Human Anaplastic Lymphoma Kinase (Homo sapiens (Human), UniProt Q9UM73). The experiment can be described thus: ALK HTRF kinase assay. Particulars: 90 μM ATP, 0.25 nM enzyme, 2 hours at 25° C. The method, then:
Materials: Recombinant Human Anaplastic Lymphoma Kinase was purchased from Invitrogen, Carlsbad, Calif. Peptide substrate (Biotin-[…]-amide) was custom synthesized at EZBiolab, Westfield, Ind. Streptavidin conjugated SureLight-Allophycocyania and LANCE Eu-W1024 labeled anti-phosphotyrosine antibody were from Perkin-Elmer, Boston, Mass. Microplates were from Corning Inc., Acton, Mass. All other reagents were from Sigma, St. Louis, Mo.
HTRF kinase assay: 40 μL reactions were run in black 384 well polystyrene plates in assay buffer (50 mM Tris, pH 7.8, 100 mM NaCI, 0.1 mg/mL BSA, 5 mM DTT), containing 0.5 μM Biotinylated peptide substrate, 10 mM MgCl2, 90 μM ATP, and 0.25 nM enzyme for 2 hours at 25° C. Reactions were stopped by addition of 20 μL assay buffer supplemented with an additional 50 mM NaCl, 0.4 mg/mL BSA, 45 mM EDTA, 4.5 nM LANCE Eu-W1024 labeled anti-phosphotyrosine antibody and 200 nM streptavidin conjugated SureLight-allophycocyanin. Plates were read in Fusion α-FP instrument (Perkin-Elmer). The concentrations needed to reach 50% inhibition, the IC50 value, were determined by fitting the assay signal to the following equation using Graphpad Prizm. Signal=Bottom+(Top−Bottom)/(1+10^((Log(IC50)−Log [I])*Hill Slope) Bottom and Top refer to the post and pre-transition baselines, respectively.

[6] abbreviates: 30 μM ATP, 500 nM peptide, room temperature 1 hr.

Chain of Recombinant Human Anaplastic Lymphoma Kinase (Q9UM73 19-1620): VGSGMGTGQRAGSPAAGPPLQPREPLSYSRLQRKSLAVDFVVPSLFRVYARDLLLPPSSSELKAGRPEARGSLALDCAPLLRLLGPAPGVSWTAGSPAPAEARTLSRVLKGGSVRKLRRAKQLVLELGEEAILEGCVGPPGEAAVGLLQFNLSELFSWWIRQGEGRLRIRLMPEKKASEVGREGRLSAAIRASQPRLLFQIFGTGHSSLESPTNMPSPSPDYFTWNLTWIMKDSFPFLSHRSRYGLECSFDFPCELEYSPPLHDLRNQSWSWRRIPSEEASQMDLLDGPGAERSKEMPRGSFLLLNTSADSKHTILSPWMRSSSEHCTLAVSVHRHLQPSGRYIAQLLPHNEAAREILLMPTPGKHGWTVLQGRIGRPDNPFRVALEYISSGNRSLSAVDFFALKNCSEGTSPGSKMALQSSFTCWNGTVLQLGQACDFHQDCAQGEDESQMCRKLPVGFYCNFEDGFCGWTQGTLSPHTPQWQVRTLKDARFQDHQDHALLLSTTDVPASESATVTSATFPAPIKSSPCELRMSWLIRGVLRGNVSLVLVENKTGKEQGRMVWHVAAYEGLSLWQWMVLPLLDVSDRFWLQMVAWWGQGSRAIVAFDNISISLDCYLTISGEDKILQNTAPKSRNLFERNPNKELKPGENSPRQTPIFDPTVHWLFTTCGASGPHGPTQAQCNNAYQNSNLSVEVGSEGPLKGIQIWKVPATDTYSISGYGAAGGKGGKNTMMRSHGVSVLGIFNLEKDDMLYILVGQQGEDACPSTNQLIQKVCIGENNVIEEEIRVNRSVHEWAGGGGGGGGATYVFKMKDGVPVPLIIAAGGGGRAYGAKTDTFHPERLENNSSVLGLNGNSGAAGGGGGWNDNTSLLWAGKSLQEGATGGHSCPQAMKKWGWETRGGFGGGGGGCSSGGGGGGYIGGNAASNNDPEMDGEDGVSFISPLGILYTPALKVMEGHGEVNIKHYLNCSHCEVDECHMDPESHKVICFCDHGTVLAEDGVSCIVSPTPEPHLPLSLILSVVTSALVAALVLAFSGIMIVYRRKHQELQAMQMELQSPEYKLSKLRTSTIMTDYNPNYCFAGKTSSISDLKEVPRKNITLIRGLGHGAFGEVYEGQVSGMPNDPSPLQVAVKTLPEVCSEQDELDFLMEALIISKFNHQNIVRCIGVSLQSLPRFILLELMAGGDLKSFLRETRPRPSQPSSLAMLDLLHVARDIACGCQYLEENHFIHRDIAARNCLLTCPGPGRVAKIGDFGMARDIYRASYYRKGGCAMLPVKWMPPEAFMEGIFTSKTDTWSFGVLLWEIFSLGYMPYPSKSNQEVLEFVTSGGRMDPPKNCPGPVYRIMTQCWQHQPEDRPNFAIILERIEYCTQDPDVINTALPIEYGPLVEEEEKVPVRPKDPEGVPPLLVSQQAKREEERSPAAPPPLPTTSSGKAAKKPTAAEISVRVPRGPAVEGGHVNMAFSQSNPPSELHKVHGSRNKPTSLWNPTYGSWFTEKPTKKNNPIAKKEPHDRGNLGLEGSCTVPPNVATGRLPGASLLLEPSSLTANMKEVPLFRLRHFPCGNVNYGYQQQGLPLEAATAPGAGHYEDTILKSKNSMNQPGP
Chain of human JAK2 (a.a. 828-1132) catalytic domain (O60674 828-1132): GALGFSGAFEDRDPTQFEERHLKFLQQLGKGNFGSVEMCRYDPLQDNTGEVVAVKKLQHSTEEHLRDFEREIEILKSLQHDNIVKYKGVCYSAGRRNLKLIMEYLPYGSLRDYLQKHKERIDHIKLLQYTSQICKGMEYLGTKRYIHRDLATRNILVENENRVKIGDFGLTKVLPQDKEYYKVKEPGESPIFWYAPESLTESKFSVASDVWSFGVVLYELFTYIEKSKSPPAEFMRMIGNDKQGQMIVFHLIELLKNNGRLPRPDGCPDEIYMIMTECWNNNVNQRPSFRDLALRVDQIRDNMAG
Chain of TYK2 (P29597 whole entry, species assumed): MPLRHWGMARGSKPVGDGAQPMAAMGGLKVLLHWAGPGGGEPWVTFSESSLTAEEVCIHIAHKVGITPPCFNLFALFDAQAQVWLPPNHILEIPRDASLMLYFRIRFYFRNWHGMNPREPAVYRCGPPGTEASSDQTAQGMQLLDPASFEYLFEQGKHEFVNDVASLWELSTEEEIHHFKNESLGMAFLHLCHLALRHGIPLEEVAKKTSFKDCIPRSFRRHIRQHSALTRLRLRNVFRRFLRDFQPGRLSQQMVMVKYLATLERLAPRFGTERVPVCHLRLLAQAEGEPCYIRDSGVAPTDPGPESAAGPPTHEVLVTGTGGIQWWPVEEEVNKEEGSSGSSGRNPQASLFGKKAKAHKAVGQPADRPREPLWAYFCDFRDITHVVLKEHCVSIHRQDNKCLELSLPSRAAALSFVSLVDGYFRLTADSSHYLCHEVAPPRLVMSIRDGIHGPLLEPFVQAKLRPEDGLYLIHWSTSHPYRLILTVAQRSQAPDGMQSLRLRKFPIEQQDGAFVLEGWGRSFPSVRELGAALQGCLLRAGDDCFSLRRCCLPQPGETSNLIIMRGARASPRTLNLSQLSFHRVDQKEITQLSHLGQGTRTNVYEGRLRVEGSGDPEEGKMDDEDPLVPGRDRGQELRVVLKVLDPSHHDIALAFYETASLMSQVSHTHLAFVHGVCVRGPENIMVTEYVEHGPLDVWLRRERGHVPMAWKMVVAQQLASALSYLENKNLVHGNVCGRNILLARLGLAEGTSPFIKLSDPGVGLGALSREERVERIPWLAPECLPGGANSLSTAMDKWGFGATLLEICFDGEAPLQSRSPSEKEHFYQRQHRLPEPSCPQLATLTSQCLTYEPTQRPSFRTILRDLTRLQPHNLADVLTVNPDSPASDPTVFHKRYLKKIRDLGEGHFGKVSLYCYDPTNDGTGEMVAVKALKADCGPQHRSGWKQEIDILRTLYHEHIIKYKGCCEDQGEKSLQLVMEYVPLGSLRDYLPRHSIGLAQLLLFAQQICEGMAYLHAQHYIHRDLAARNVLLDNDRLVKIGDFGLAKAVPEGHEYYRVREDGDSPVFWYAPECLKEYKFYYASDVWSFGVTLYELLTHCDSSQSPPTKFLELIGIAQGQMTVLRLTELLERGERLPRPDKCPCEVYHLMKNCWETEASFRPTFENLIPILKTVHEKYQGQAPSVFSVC

Turning to `C[C@H]1Nc2nc(ncc2Cl)Nc2cccc(c2)COc2cccc1c2` [Example 6, (9R)-6-Chloro-9-methyl-15-oxa-2,4,8,23-tetraazatetracyclo[15.3.1.1(3,7).1(10,14)]tricosa-1(21),3(23),4,6,10(22),11,13,17,19-nonaene trifluoroacetate], the 50% inhibitory concentration (IC50) was 350 nM in experiment [1] (setting [6]); 140 nM in experiment [2]; 346 nM in experiment [3]; above 1000 nM in experiment [4]; above 10000 nM in experiment [5].

With `Clc1cnc2nc1NCc1cc(ccc1-c1ccccc1)OCCCc1cccc(c1)N2` [Example 15, 6-Chloro-11-phenyl-15-oxa-2,4,8,25-tetraazatetracyclo[17.3.1.1(3,7).1(10,14)]pentacosa-1(23),3(25),4,6,10(24),11,13,19,21-nonaene], the half-maximal inhibitory concentration (IC50) in experiment [1] (setting [6]) was 41 nM; in experiment [2], 31 nM; in experiment [3], 81 nM; in experiment [4], 400 nM; in experiment [5], above 1000 nM.

On to `Clc1cnc2nc1NCc1cccc(c1)OCc1cccc(c1)N2` [Example 1, 6-Chloro-15-oxa-2,4,8,23-tetraazatetracyclo[15.3.1.1(3,7).1(10,14)]tricosa-1(21),3(23),4,6,10(22),11,13,17,19-nonaene trifluoroacetate], for which the IC50 in experiment [1] is 49 nM; in experiment [2], 17 nM; in experiment [3], 51 nM; in experiment [4], 400 nM; in experiment [5], above 1000 nM.

`Clc1cnc2nc1NCCc1cccc(c1)OCCc1cccc(c1)N2` [Example 9, 6-Chloro-16-oxa-2,4,8,25-tetraazatetracyclo[17.3.1.1(3,7).1(11,15)]pentacosa-1(23),3(25),4,6,11(24),12,14,19,21-nonaene]: the IC50 in experiment [1] (setting [6]) stood at 23 nM; in experiment [2], 55 nM; in experiment [3] it was 28 nM; in experiment [4], 53 nM; in experiment [5] it was 1230 nM.

Regarding `O=C(Nc1ccc2cc1CCc1cncc(c1)Nc1ncc(Cl)c(n1)NC2)c1ccccc1` [Example 18, N-[6-Chloro-2,4,8,19,23-pentaazatetracyclo[15.3.1.1(3,7).1(10,14)]tricosa-1(21),3(23),4,6,10(22),11,13,17,19-nonaen-13-yl]benzamide bis(trifluoroacetate)], the IC50 in experiment [1] (setting [6]), in experiment [2], in experiment [3], in experiment [4] and in experiment [5] was above 1000 nM each time.
